In one series the target is Kgp (Porphyromonas gingivalis (Bacteroides gingivalis), UniProt Q51817). Put plainly: Cy5 activity-based probe detection of Kgp in P. gingivalis lysate. It counts as binding. The procedure: It has a warhead that binds to the Kgp active site, a peptide-based core, and a Cy5 fluorophore for detection. Labeled target proteins can be visualized by biochemical separation of a sample with fractionation by 2-D gel electrophoresis and detection of fluorescent signals from Cy5 at the appropriate excitation and emission wavelength. Incubation of a fixed concentration of the probe following binding of Kgp to a test compound (e.g., a candidate Kgp inhibitor) results in binding of the activity probe to Kgp active sites not already bound by the test compound.
10^8 bacteria were collected and centrifuged at 5000 g for 10 min at 4° C., and the supernatant was discarded. The bacterial cell pellet was lysed with 1 mL of B-Per lysis buffer (Thermo Fischer) on ice for 10 min, then centrifuged for 10 min at 14000 g, 4° C. Supernatant-containing protein lysate was collected. Biological samples were lysed with B-Per lysis buffer for 10 min at 4° C.
Biological samples, P. gingivalis lysate or purified Kgp were incubated with quenchable Cy5 probe compound 71 (1 μM) for 1 h at 37° C. with shaking. Then, samples were denatured with NUPAGE LDS sample buffer (Thermo Fisher) containing 50 mM DTT at 95° C. for 10 min and subjected to SDS-PAGE electrophoresis using a Criterion 4-15% precast gel (Bio-Rad) and Tris/Glycine/SDS running buffer (Bio-Rad). The gel was run at 75V for 10 min and then 125V for 1.5 h. The gel was then removed from the plastic cassette and subjected to Cy5 visualization with a ChemiDoc imaging system (Bio-Rad).
Samples were labeled with quenchable Cy5 probe compound 71 (1 μM) for 1 h at 37° C. with shaking. For immunoprecipitation of Cy5 labeled Kgp, the samples were then incubated with 10 μg of rabbit polyclonal CAB102 antibody with rotation overnight at 4° C. Then, samples were incubated with prewashed Dynabead Protein G beads with rotation for 20 min at room temperature. The samples were washed 4 times with 200 μL of washing buffer, using a magnetic rack. […]

In series [1] the test system is lysine gingipain (Kgp). Put plainly: biochemical. The series is classed as biochemical, Porphyromonas gingivalis. The settings on record: as compared to reference compound 73. The method, then:
(§1) The specific assay conditions were as follows. Buffer: pH=7.5, 100 mM Tris-HCl, 75 mM NaCl, 2.5 mM CaCl2), 10 mM cysteine, 1% DMSO after all additions. Protein: 0.1 nM Kgp, isolated from culture of Porphyromonas gingivalis, as described by Pike et al. (J. Biol. Chem. 1994, 269(1), 406), and Potempa and Nguyen (Current Protocols in Protein Science. 2007, 21.20.1-21.20.27). Fluorogenic substrate: 10 μM Z-His-Glu-Lys-MCA. Time=90 minutes. Temperature=37° C.
(§2) Further assays to measure the inhibitory activity of compounds of the present invention against Kgp and cathepsins B, H, K, L, and S were conducted as described in Example 66. The capacities of the compounds to inhibit the activity of cathepsins F, V, and Z were also measured.

Series [2] in a line: Pharmacokinetics in male CD-1 mice dosed p.o. It counts as in vivo. The settings on record: p.o. 10 mg/kg, compared to reference compound 73.
In the next series the target is Cathepsin S (Homo sapiens (Human), UniProt P25774). Put plainly: Cathepsin S inhibition assay. It counts as biochemical. The settings on record: for IC50: read-out: IC50 (nM) CatS. The procedure: (§3) The capacities of compounds of the present invention to inhibit the activity of cathepsins B, H, K, L, and S were measured in similar assays. Boc-Leu-Arg-Arg-AMC (20 μM) in sodium acetate buffer (50 mM, pH 5.5) containing DTT (1 mM) and EDTA (2 mM) was used for the Cathepsin B assay. L-Arg-AMC (20 μM) in sodium acetate buffer (50 mM, pH 5.5) containing DTT (1 mM) and EDTA (2 mM) was used for the Cathepsin H assay. Z-Phe-Arg-AMC (10 μM) in HEPES buffer (50 mM, pH 7.4) containing DTT (2.5 mM) and EDTA (1 mM) was used for the Cathepsin K assay. Z-Phe-Arg-AMC (20 μM) in sodium acetate buffer (50 mM, pH 5.5) containing DTT (1 mM) and EDTA (2 mM) was used for the Cathepsin L assay. Z-Leu-Arg-AMC (10 μM) in sodium acetate buffer (25 mM, pH 4.5) containing DTT (2.5 mM) and NaCl (50 mM) was used for the Cathepsin S assay. The capacities of the compounds to inhibit the activity of cathepsins F, V, and Z were also measured.
as §2

The target of the next series is cathepsin V (Homo sapiens (Human), UniProt O60911). In words: Cathepsin V inhibition assay. It counts as biochemical. The settings on record: Table 4; read-out: IC50 (nM) CatV. The procedure: as §3, §2
Another series deals with Cathepsin K (Homo sapiens (Human), UniProt P43235). In words: Cathepsin K inhibition assay. The series is classed as biochemical. The following applies: for IC50: read-out: IC50 (nM) CatK. The method, then: as §3, §2
In another series the target is Cathepsin L (Homo sapiens (Human), UniProt P07711). In words: Cathepsin L inhibition assay. It counts as biochemical. The settings on record: for IC50: read-out: IC50 (nM) CatL. The procedure:
as §3, §2

In another series the target is Cathepsin B (Homo sapiens (Human), UniProt P07858). In words: Cathepsin B inhibition assay. The series is classed as biochemical. The following applies: for IC50: read-out: IC50 (nM) CatB. The procedure:
as §3, §2

Series [3] concerns the target lysine gingipain (Kgp) (Porphyromonas gingivalis (Bacteroides gingivalis), UniProt P72194). Put plainly: biochemical. The series is classed as biochemical. The following applies: IC50 (nM) Kgp. The procedure:
as §1, §2

A further series concerns the target Cathepsin H (Homo sapiens (Human), UniProt P09668). In words: Cathepsin H inhibition assay. It counts as biochemical. The following applies: for IC50: read-out: IC50 (nM) CatH. The procedure: as §3, §2
Another series addresses cathepsin F (Homo sapiens (Human), UniProt Q9UBX1). In words: Cathepsin F inhibition assay. The following applies: Table 4; read-out: IC50 (nM) CatF. It counts as biochemical. The procedure: as §3, §2

Structures are written as SMILES. Several values for one entry are separate records, joined by “and”; a condition that tells them apart may be missing. Equal entries are not always repeated. Where two headings read alike, the source gives them in different places.

For the compound `C[N+]1=C(/C=C/C=C/C=C2\N(CCCCCC(=O)NCc3cn(-c4cccc(C(=O)N[C@@H](CCCCN)C(=O)COc5c(F)cc(CNC(=O)C6CCN(S(=O)(=O)c7ccccc7-c7c8cc/c(=[N+]9\CCc%10cc(S(=O)(=O)O)ccc%109)cc-8oc8cc(N9CCc%10cc(S(=O)(=O)O)ccc%109)ccc78)CC6)cc5F)c4)nn3)c3ccc(S(=O)(=O)O)cc3C2(C)C)C(C)(C)c2cc(S(=O)(=O)O)ccc21` [Compound 71], the specificity of detection entry at Kgp (W83 vs Kgp knockout strain) is “specific for Kgp”. Further, the “apparent limit of detection of Kgp” value at Kgp (probe 1 μM) was determined as 500 CFU.

For the compound `COC(C)(C)C(=O)N[C@@H](CCCCN)C(=O)COc1c(F)ccc(F)c1F` [Compound 47, (S)—N-(7-amino-2-oxo-1-(2,3,6-trifluorophenoxy)heptan-3-yl)-2-methoxy-2-methylpropanamide], the “selectivity for Kgp over endogenous cathepsins” value (shortened to “selectivity for Kgp”) with lysine gingipain (Kgp) [1] is reported as “far more selective”. Also, in series [2], the “concentrations in the brain and cerebrospinal fluid (CSF)” value is “increased concentrations in the brain and cerebrospinal fluid (CSF)”; the oral availability result is given as “improved oral availability”; the plasma concentrations result is “increased plasma concentrations”.

On to `NCCCC[C@H](NC(=O)C1CCCC1)C(=O)COc1cccc(F)c1` [Compound 7, (S)—N-(7-amino-1-(3-fluorophenoxy)-2-oxoheptan-3-yl)cyclopentanecarboxamide], for which, in the series on lysine gingipain (Kgp) [1], the “selectivity for Kgp” value was “increased selectivity”.

Consider `NCCCCC(NC(=O)c1ccc(F)nc1)C(=O)COc1ccon1` (stereo not shown) [Compound 55a], for which the 50% inhibitory concentration (IC50) on Cathepsin S (Table 4) is over 10000 nM; at cathepsin V, over 10000 nM; at Cathepsin K (Table 4), 1000 nM; at Cathepsin L (Table 4), 6380 nM; on Cathepsin B (Table 4), over 10000 nM; at lysine gingipain (Kgp) [3] (Table 4), 0.12 nM. For the same compound, the half-inhibitory concentration (IC50) at Cathepsin H (Table 4) is over 10000 nM.

On to `NCCCC[C@H](NC(=O)c1ccc(F)nc1)C(=O)COc1ccon1` [Compound 55, (S)—N-(7-amino-1-(isoxazol-3-yloxy)-2-oxoheptan-3-yl)-6-fluoronicotinamide], for which the “selectivity for Kgp” value in the series with lysine gingipain (Kgp) [1] is recorded as “far more selective”.

For the compound `NCCCCC(NC(=O)c1ccccn1)C(=O)COc1c(F)ccc(F)c1F` (stereo not shown) [Compound 50a], the concentration for half-maximal inhibition (IC50) was over 10000 nM on Cathepsin S (Table 4); over 10000 nM on cathepsin V; 1000 nM on Cathepsin K (Table 4); over 10000 nM on Cathepsin L (Table 4); over 10000 nM on Cathepsin B (Table 4); 0.09 nM at lysine gingipain (Kgp) [3] (Table 4). The concentration for half-maximal inhibition (IC50) on cathepsin F and at Cathepsin H (Table 4) was over 10000 nM in each case.

Regarding `COC(C)(C)C(=O)NC(CCCCN)C(=O)COc1c(F)ccc(F)c1F` (stereo not shown) [Compound 47a], the half-maximal inhibitory concentration (IC50) is over 10000 nM at Cathepsin S (Table 4); over 10000 nM on cathepsin V; 9000 nM at Cathepsin K (Table 4); over 10000 nM at Cathepsin L (Table 4); over 10000 nM on Cathepsin B (Table 4); 0.06 nM on lysine gingipain (Kgp) [3] (Table 4). Further, the half-maximal inhibitory concentration (IC50) at cathepsin F and at Cathepsin H (Table 4) was over 10000 nM throughout.

In the case of `NCCCC[C@H](NC(=O)C1CCCC1)C(=O)COC(C(F)(F)F)C(F)(F)F` [Compound 18, (S)—N-(7-amino-1-((1,1,1,3,3,3-hexafluoropropan-2-yl)oxy)-2-oxoheptan-3-yl)cyclopentanecarboxamide], the “selectivity for Kgp” value in the series with lysine gingipain (Kgp) [1] is “far more selective”.

On to `NCCCCC(NC(=O)C1CCCC1)C(=O)COC(C(F)(F)F)C(F)(F)F` (stereo not shown) [Compound 18a], for which the IC50 on Cathepsin S (Table 4) was over 10000 nM; on cathepsin V, over 10000 nM; at Cathepsin K (Table 4), over 10000 nM; on Cathepsin L (Table 4) it was over 10000 nM; on Cathepsin B (Table 4), over 10000 nM; at lysine gingipain (Kgp) [3] (Table 3) it was 0.5 nM. The 50% inhibitory concentration (IC50) on lysine gingipain (Kgp) [3] (Table 4) is 0.5 nM; at cathepsin F, over 10000 nM; on Cathepsin H (Table 4), over 10000 nM.

Regarding `NCCCCC(NC(=O)C1CCCC1)C(=O)COc1c(F)cccc1F` (stereo not shown) [Compound 2a], the IC50 on Cathepsin S (Table 3) was over 100000 nM; at Cathepsin S (Table 4), over 10000 nM; at cathepsin V, over 10000 nM; on Cathepsin K (Table 3), 2290 nM; on Cathepsin K (Table 4), 2290 nM; at Cathepsin L (Table 3) it was over 100000 nM. For the same compound, the IC50 on Cathepsin L (Table 4) is over 10000 nM; on Cathepsin B (Table 3), over 10000 nM; at Cathepsin B (Table 4), over 10000 nM; against lysine gingipain (Kgp) [3] (Table 3), ≤ 0.05 nM and 0.11 nM; at lysine gingipain (Kgp) [3] (Table 4), under 0.05 nM; on Cathepsin H (Table 3), 1550 nM. For the same compound, the IC50 at Cathepsin H (Table 4) is 1550 nM.

For the compound `NCCCC[C@H](NC(=O)C1CCCC1)C(=O)COc1c(F)cccc1F` [Compound 2, (S)—N-(7-amino-1-(2,6-difluorophenoxy)-2-oxoheptan-3-yl)cyclopentanecarboxamide], at Cathepsin S (ratio to IC50 of compound 73), the “CatS IC50 relative to reference compound 73” value is “more than ten times higher”. The “CatK IC50 relative to reference compound 73” value on Cathepsin K (ratio to IC50 of compound 73) was “more than 100 times”. Further, the “CatL IC50 relative to reference compound 73” value on Cathepsin L (ratio to IC50 of compound 73) is listed as “more than 100 times”. Besides, the “CatB IC50 relative to reference compound 73” value on Cathepsin B (ratio to IC50 of compound 73) is given as “more than 20 times”. Also, the “selectivity for Kgp” value in the series on lysine gingipain (Kgp) [1] is reported as “increased selectivity”. At Cathepsin H (ratio to IC50 of compound 73), the “CatH IC50 relative to reference compound 73” value was “more than ten times higher”.

For `COC(C)(C)C(=O)N[C@@H](CCCCN)C(=O)COC(C(F)(F)F)C(F)(F)F` [Compound 69, (S)—N-(7-amino-1-((1,1,1,3,3,3-hexafluoropropan-2-yl)oxy)-2-oxoheptan-3-yl)-2-methoxy-2-methylpropanamide], the “selectivity for Kgp” value with lysine gingipain (Kgp) [1] is reported as “far more selective”. Further, in series [2], the “concentrations in the brain and cerebrospinal fluid (CSF)” value was “increased concentrations in the brain and cerebrospinal fluid (CSF)”; the oral availability result is listed as “improved oral availability”; the plasma concentrations entry was “increased plasma concentrations”.
